Measured values published in patent publication US9440910B2, “Reference markers for fesoterodine fumarate” (ALEMBIC PHARMACEUTICALS LIMITED, priority 2012, dated 2016).
Counter-ions that a name gives are not always drawn.

What was measured:
Type in all cases: physicochemical
[1] = Stability Study of Fesoterodine Fumarate at 25° C.+/−2° C. 60%+/−5% RH
Protocol: (§1) Present inventors carried out the stability study of Fesoterodine Fumarate at different conditions and summarized the table shown below which easily indicate how the impurity at 1.82 RRT is increasingly generated.
Stability Study of Fesoterodine Fumarate at 25° C.+/−2° C. 60%+/−5% RH
(§2) The LC system, used for method development and forced degradation studies and method validation was Waters-Alliance (manufactured by Waters India Ltd) LC system with a photo diode detector. The out put signal was monitored and processed using Empower software system (designed by Waters India) on IBM computer (Digital Equipment Co). • The chromatographic column used was a Waters Aquity BEH C18 100 mm×2.1 mm column with 1.7 μm particles. The mobile phase consists buffer (1.4 g of Disodium hydrogen phosphate in 1000 mL of water pH-8.0 with ortho phosphoric acid), and solvent is acetonitrile. The flow rate of the mobile phase was kept at 0.3 ml/min. beginning with the gradient ratio of mobile phase buffer and solvent 50:50 (v/v), system was continued at the same ratio for 2 minutes. The ratio was changed linearly 30:70(v/v) within 7 minutes and again system was continued at the same ratio for 9 minutes. After 1.5 minutes the initial gradient of 50:50 is for 2.5 minutes to be conditioned far every analysis. The column temperature was maintained at 45° C. and the wavelength was monitored at a wavelength of 220 nm. The injection volume was 3 μL for related substances determination. Acetonitrile was used as diluent during the standard, and test samples preparation.

[2] = Stability Study of Fesoterodine Fumarate at 40° C.+/−2° C. 75%+/−5% RH
Protocol: as §1
Stability Study of Fesoterodine Fumarate at 40° C.+/−2° C. 75%+/−5% RH
as §2

[3] = Stability Study of Fesoterodine Fumarate at 30° C.+/−2° C. 65%+/−5% RH
Protocol: as §1
Stability Study of Fesoterodine Fumarate at 30° C.+/−2° C. 65%+/−5% RH
as §2

[4] = Stability Study of Fesoterodine Fumarate at 2-8° C.
Protocol: as §1
Stability Study of Fesoterodine Fumarate at 2-8° C.
as §2

[5] = Analysis of the stability samples of fesoterodine fumarate; details: after 2-6 months stability at 25° C. and above temperature; not observed during initial analysis
Protocol: During analysis of the stability samples of fesoterodine fumarate, after 2-6 months stability at 25° C. and above temperature, the unknown impurity (1.82 RRT) detected which was not observed during initial analysis.
as §2, with “The injection volume was 3 μL for related substances determination. Acetonitrile was used as diluent during the standard, and test samples preparation.” left out

0.29 RRT (Fumaric acid ester) ([1]; 1 month): 0.05%
Dihydroxy impurity (active metabolite) ([1]; 1 month): 0.15%
Purity of Fesoterodine fumarate ([1]; 1 month): 99.52%
0.29 RRT (Fumaric acid ester) ([1]; 2 month): 0.07%
Dihydroxy impurity (active metabolite) ([1]; 2 month): 0.27%
Purity of Fesoterodine fumarate ([1]; 2 month): 99.38%
0.29 RRT (Fumaric acid ester) ([1]; 3 month): 0.08%
1.82 RRT ([1]; 3 month): 0.01%
Dihydroxy impurity (active metabolite) ([1]; 3 month): 0.40%
Purity of Fesoterodine fumarate ([1]; 3 month): 99.25%
0.29 RRT (Fumaric acid ester) ([1]; 4 month): 0.07%
1.82 RRT ([1]; 4 month): 0.02%
Dihydroxy impurity (active metabolite) ([1]; 4 month): 0.53%
Purity of Fesoterodine fumarate ([1]; 4 month): 99.11%
0.29 RRT (Fumaric acid ester) ([1]; 6 month): 0.12%
1.82 RRT ([1]; 6 month): 0.11%
Dihydroxy impurity (active metabolite) ([1]; 6 month): 1.02
Purity of Fesoterodine fumarate ([1]; 6 month): 98.42%
0.29 RRT (Fumaric acid ester) ([1]; Initial): 0.03%
Dihydroxy impurity (active metabolite) ([1]; Initial): 0.07%
Purity of Fesoterodine fumarate ([1]; Initial): 99.69%
0.29 RRT 0.29 RRT (Fumaric acid ester) ([2]; 1 month): 0.10%
1.82 RRT ([2]; 1 month): 0.06%
Dihydroxy impurity (active metabolite) ([2]; 1 month): 0.64%
Purity of Fesoterodine fumarate ([2]; 1 month): 98.92%
0.29 RRT 0.29 RRT (Fumaric acid ester) ([2]; Initial): 0.03%
Dihydroxy impurity (active metabolite) ([2]; Initial): 0.07%
Purity of Fesoterodine fumarate ([2]; Initial): 99.69%
0.29 RRT (Fumaric acid ester) ([3]; 1 month): 0.06%
Dihydroxy impurity (active metabolite) ([3]; 1 month): 0.23%
Purity of Fesoterodine fumarate ([3]; 1 month): 99.43%
0.29 RRT (Fumaric acid ester) ([3]; 2 month): 0.09%
1.82 RRT ([3]; 2 month): 0.02%
Dihydroxy impurity (active metabolite) ([3]; 2 month): 0.45%
Purity of Fesoterodine fumarate ([3]; 2 month): 99.15%
0.29 RRT (Fumaric acid ester) ([3]; 3 month): 0.10%
1.82 RRT ([3]; 3 month): 0.07%
Dihydroxy impurity (active metabolite) ([3]; 3 month): 0.71%
Purity of Fesoterodine fumarate ([3]; 3 month): 98.84%
0.29 RRT (Fumaric acid ester) ([3]; 4 month): 0.09%
1.82 RRT ([3]; 4 month): 0.11%
Dihydroxy impurity (active metabolite) ([3]; 4 month): 0.76%
Purity of Fesoterodine fumarate ([3]; 4 month): 98.74%
0.29 RRT (Fumaric acid ester) ([3]; Initial): 0.03%
Dihydroxy impurity (active metabolite) ([3]; Initial): 0.07%
Purity of Fesoterodine fumarate ([3]; Initial): 99.69%
0.29 RRT (Fumaric acid ester) ([4]; 3 month): 0.04%
Dihydroxy impurity (active metabolite) ([4]; 3 month): 0.11%
Purity of Fesoterodine fumarate ([4]; 3 month): 99.61%
0.29 RRT (Fumaric acid ester) ([4]; 6 month): 0.05%
Dihydroxy impurity (active metabolite) ([4]; 6 month): 0.15%
Purity of Fesoterodine fumarate ([4]; 6 month): 99.52%
0.29 RRT (Fumaric acid ester) ([4]; Initial): 0.03%
Dihydroxy impurity (active metabolite) ([4]; Initial): 0.07%
Purity of Fesoterodine fumarate ([4]; Initial): 99.69%
unknown impurity (1.82 RRT) [5]: detected
Structure (SMILES): CC(C)C(=O)Oc1ccc(CO)cc1[C@H](CCN(C(C)C)C(C)C)c1ccccc1 [Fesoterodine Fumarate, [2-[(1R)-3-(Di(propan-2-yl)amino)-1-phenylpropyl]-4-(hydroxymethyl)phenyl]2-methylpropanoate]
